Results published in US12636293B2, “Methods of treating charcot-marie-tooth disease” (CMTx Biotech Inc., priority 2019, dated 2026).

Legend:
[1] = dose of about 10 to about 20 mg/day; cited from earlier work
[2] = test system: Charcot Marie Tooth Disease symptoms (neuropathic pain); experiment: Case of a subject with Charcot Marie Tooth Disease treated with sub-antimicrobial dose doxycycline; format: in vivo, human
Experimental: The subject described the pain during the daytime hours as a 2/10 and during the evening hours as a 6/10, and experienced this pain consistently for the prior 10 years. The subject began taking a sub-antimicrobial dose of doxycycline, i.e., 20 mg twice daily (i.e. Periostat®). […] Throughout the treatment period, the subject described the pain during daytime hours as a 1/10, and during the evening hours also as a 1/10. […] Within 1 week of discontinuing twice-daily sub-antimicrobial dose doxycycline treatment, the subject experienced a return of the neuropathic pain in a sporadic manner.

SMILES	plasma concentrations in humans [1]	adverse events ([2]; 20 mg twice daily for a period of 12 weeks)	time to return of neuropathic pain (sporadic) after discontinuing treatment ([2]; after 12 weeks of 20 mg twice daily)	pain during daytime hours (subject's description) ([2]; person with CMTD, 20 mg twice daily, throughout the treatment period (12 weeks), before treatment 2/10)	pain during the evening hours (subject's description) ([2]; person with CMTD, 20 mg twice daily, throughout the treatment period (12 weeks), before treatment 6/10)
NC(=O)C1=C(O)C[C@@H]2C[C@@H]3Cc4cccc(O)c4C(=O)C3=C(O)[C@]2(O)C1=O [CMT-3, 6-demethyl-6-deoxy-4-dedimethylaminotetracycline]	about 1.0 μg/ml	–	–	–	–
C[C@H]1c2cccc(O)c2C(=O)C2=C(O)[C@]3(O)C(=O)C(C(N)=O)=C(O)[C@@H](N(C)C)[C@@H]3[C@@H](O)[C@@H]21 [doxycycline, 6α-deoxy-5-hydroxytetracycline]	–	no adverse events were observed	≤ 1 week	1/10	1/10
